# Source: publication PMC8316002, “Inhibition of Escherichia coli Lipoprotein Diacylglyceryl Transferase Is Insensitive to Resistance Caused by Deletion of Braun’s Lipoprotein” (Journal of Bacteriology, 2021)
# Assays:
# Format in all cases: cell-based, E. coli
# cells expressing lppΔK = assay: Time-kill, CFT073 imp4213 Δlpp complemented with lpp or lppΔK; details: 12.5 μM G2824 or 3.2 μM globomycin; CFU; lppΔK (unable to link to PGN) versus WT lpp
# From the text: To determine if loss of PGN linkage of Lpp leads to increased G2824 bactericidal activity, we treated CFT073 imp4213 Δlpp cells complemented with either WT lpp or a mutant form that is unable to covalently link to PGN (lppΔK). Using the previously described SDS fractionation protocol, we confirmed that while WT Lpp localized to both PAP and non-PAP fractions, the LppΔK mutant was primarily detected in the non-PAP fraction (see Fig. S5A). As we noted earlier, PGN-linked DGPLP (§) and other PGN-linked Lpp forms (†) were primarily detectable in the PAP fraction (Fig. S5A).
# Unless stated otherwise, E. coli cells were grown in Luria-Bertani (LB) medium (0.5% yeast extract, 1% tryptone, 0.5% NaCl) at 37°C. […] Growth of MG1655 inducible deletion strains was measured by culturing in the presence of 2-fold dilutions of arabinose (starting arabinose concentrations for CFT073 and MG1655 inducible deletion strains were 4% and 0.8%, respectively). While 2% arabinose was sufficient for WT growth of MG1655 Δlgt, 4% arabinose was used for CFT073 Δlgt based on comparing its growth to that of WT CFT073 as measured by CFU. OD600 growth measurements were performed using an EnVision 2101 multilabel reader plate reader (PerkinElmer) linked with Echo liquid handler (Labcyte). […] Bacterial viability at different time points during the treatment was measured by enumerating CFU. […]
# CFT073 imp4213 = assay: SDS fractionation (PAP and non-PAP) of Lpp and Pal; details: 0.5× MIC, 60 min, PAP fraction
# Description: Purification of PGN-associated proteins (PAP) was performed according to published methods ([17], [40], [41]) with some modifications. Briefly, bacteria were harvested in mid-exponential phase for treatment and then subjected to PAP extraction by resuspending the cell pellets from an OD (A600) of 10 in 6 ml of PAP extraction buffer containing 2% (wt/vol) SDS in 100 mM Tris-HCl (pH 8.0) with 100 mM NaCl, 10% glycerol, and cOmplete, mini, EDTA-free protease inhibitor cocktail (Sigma-Aldrich). After 60 min at RT, the extraction was subjected to centrifugation at 100,000 × g for 60 min at 22°C, and the pellet, containing PGN and associated proteins, was washed once with the same PAP extraction buffer with centrifugation at 100,000 × g for 30 min and resuspended in 200 μl of PAP extraction buffer (referred to as the SDS-insoluble on PAP fraction). The supernatant containing the SDS-soluble fraction was aliquoted and frozen (referred to as non-PAP fraction). Both fractions were treated with equal volumes of BugBuster buffer prior to the addition of sample buffer for Western immunoblotting as described above. It should be noted that the final PAP fractions were ∼30-fold more concentrated than the non-PAP fractions.
# WT CFT073 = assay: MIC assay, WT CFT073 (Table 1); details: Escherichia coli, average of two independent experiments, each in duplicates, CLSI
# Description: (§1) Unless stated otherwise, E. coli cells were grown in Luria-Bertani (LB) medium (0.5% yeast extract, 1% tryptone, 0.5% NaCl) at 37°C. Where indicated, kanamycin (Kan) was added to culture media at a 50-μg/ml final concentration. MIC assays were performed based on Clinical and Laboratory Standards Institute (CLSI) guidelines. For in vitro growth curves, overnight cultures of WT CFT073, CFT073 Δlgt, and CFT073 Δlgt complemented with lgt from E. coli (lgt^Ec) or P. aeruginosa (lgt^Pa) were grown to mid-exponential phase (optical density at 600 nm [OD600] of 0.6) and then diluted to an OD600 of 0.1 to initiate growth curves. At various times, culture aliquots were diluted and plated in dilutions on LB+Kan agar, and CFU were enumerated in duplicates. Growth of MG1655 inducible deletion strains was measured by culturing in the presence of 2-fold dilutions of arabinose (starting arabinose concentrations for CFT073 and MG1655 inducible deletion strains were 4% and 0.8%, respectively). While […] was sufficient for WT growth of MG1655 Δlgt, 4% arabinose was used for CFT073 Δlgt based on comparing its growth to that of WT CFT073 as measured by CFU. OD600 growth measurements were performed using an EnVision 2101 multilabel reader plate reader (PerkinElmer) linked with Echo liquid handler (Labcyte). For time-kill experiments, bacteria were harvested in mid-exponential phase and treated with 12.5 μM G2824, 3.2 μM globomycin, and 1.6 μM vancomycin. CFU were enumerated at various times posttreatment. Bacterial culture medium containing 2% arabinose was used to induce lpp or lppΔK expression from pBad24 plasmids. Bacterial viability at different time points during the treatment was measured by enumerating CFU. Serum killing assays were carried out as previously described ([17]).
# CFT073 Δlgt [1] = assay: MIC assay, CFT073 Δlgt, Lgt 4% Ara; details: Escherichia coli
# Description: as §1
# CFT073 Δlgt [2] = assay: MIC assay, CFT073 Δlgt, Lgt 0.25% Ara; details: Escherichia coli
# Description: as §1
SMILES,effect of lppΔK on bactericidal killing (cells expressing lppΔK),levels of PGN-linked Lpp and Pal (CFT073 imp4213),MIC (WT CFT073) [µM],MIC (CFT073 Δlgt [1]) [µM],MIC (CFT073 Δlgt [2]) [µM]
CCCCCC[C@H]1OC(=O)CNC(=O)[C@H]([C@H](C)O)NC(=O)[C@H](CO)NC(=O)[C@H]([C@H](C)CC)NC(=O)[C@H](CC(C)C)N(C)C(=O)[C@@H]1C [Globomycin],completely resistant,accumulation of PGN-linked DGPLP (§) and other PGN-linked Lpp forms (†),–,–,–
CN[C@H](CC(C)C)C(=O)N[C@H]1C(=O)N[C@@H](CC(N)=O)C(=O)N[C@H]2C(=O)N[C@H]3C(=O)N[C@H](C(=O)N[C@H](C(=O)O)c4cc(O)cc(O)c4-c4cc3ccc4O)[C@H](O)c3ccc(c(Cl)c3)Oc3cc2cc(c3O[C@@H]2O[C@H](CO)[C@@H](O)[C@H](O)[C@H]2O[C@H]2C[C@](C)(N)[C@H](O)[C@H](C)O2)Oc2ccc(cc2Cl)[C@H]1O [Vancomycin],–,–,> 100,> 100,12.5
